From PubChem BioAssay AID179 (DTP/NCI, 2004)
Active and inactive are the calls of the source.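 Rule for the calls: active = compounds giving half or more protection of infected cells from virus-caused growth loss, again on retest; inactive = the rest.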

System: CEM cells HIV-1 protection, formazan growth assay
Assay: NCI AIDS Antiviral Assay
Settings: for IC50: measured here: growth of uninfected CEM cells
How it was run: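 Human CEM cells, uninfected and HIV-1-infected, exposed to five drug concentrations; growth measured by soluble formazan assay and scored as percent protection from infection, with protecting compounds retested.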

| SMILES | EC50 | IC50 | outcome |
| --- | --- | --- | --- |
| O=CSC(=Nc1ccc(Cl)cc1)NC(=O)COc1ccc(Cl)cc1 | > 148 µM | > 100 µM |  |
| O=C(/C=C/c1ccccc1)c1cccs1 | > 200 µM | 3.72 µM |  |
| Nc1nc2nc3c(nc2c(=O)[nH]1)CN(C1CCCCC1)C3=O | > 74.1 µM | > 74.1 µM |  |
| O=c1c2c3c(sc2nc2n1NC=NN2)CCCC3 | > 20 µM | 8.51 µM |  |
| O=C1NC(=S)NC1C(Cc1ccccc1)c1ccccc1 (configuration not stated) | > 200 µM | 85.1 µM |  |
| CC1(C)CC[C@]2(C)CC=C3[C@]4(C)CC[C@H]5C(C)(C)C(=O)CC[C@]5(C)[C@H]4CC[C@@]3(C)[C@H]2C1 | > 50.1 µM | > 50.1 µM |  |
| Fc1ccc(-c2sc(-c3cccs3)cc2Cc2cccs2)cc1 |  |  | inactive |
| Nc1ccc(C(=O)NN2C(=O)C(Cl)C2c2ccc([N+](=O)[O-])cc2)cc1 (configuration not stated) | > 200 µM | 4.07 µM |  |
| Cc1cc(=O)oc2cc3c(cc12)Oc1ccccc1O3 | > 25.7 µM | > 25.7 µM |  |
| O=C1C=C(Nc2cc(Cl)ccc2Cl)c2ccccc2C1=O | > 3.16 µM | > 3.16 µM |  |
| COC(=O)c1ccc2c(c1)CC1(C2)Cc2ccc3c(c2C1)CCC3 (configuration not stated) | > 200 µM | > 200 µM |  |
| Cc1ccc(C(=O)N(C2CCCCC2)C2CCCCC2)cc1N=NN(C)C | > 19.5 µM | > 19.5 µM |  |
| CC(=O)Nc1ccc(C(=O)n2[nH]c(C)c(/C=C3\C(=O)C=Cc4ccccc43)c2=O)cc1 | > 87.1 µM | 42.7 µM |  |
| CCOC(=O)c1cnc2c(cnn2CC)c1NN=C(C)C | > 200 µM | 117 µM |  |
| O=P(O)(Cc1ccccc1)OCC1(O)OCC(O)C(O)C1O (configuration not stated) | > 200 µM | > 200 µM |  |
| O=C(CC(=O)C(=O)Nc1ccccc1)CC(c1ccccc1)c1c(O)c2ccccc2oc1=O (configuration not stated) | > 550 µM | 263 µM |  |
| CC1(C)OC(=O)C(=Cc2cccc(F)c2)C(=O)O1 | > 525 µM | > 525 µM |  |
| CCO/C=N\C1=C(C#N)SC2=N/C(=C\c3ccc(OC)cc3)C(=O)N21 | > 200 µM | > 200 µM |  |

| SMILES | EC50 | IC50 | outcome |
| --- | --- | --- | --- |
| CC1(C)C(N2CCOCC2)CS1(=O)=O (configuration not stated) | > 200 µM | > 200 µM |  |
| CC(=O)OC1CN2CCC1CC2 (configuration not stated) | > 200 µM | > 200 µM |  |
| Cn1c(-c2ccccc2)cc(-c2ccc3c(c2)OCO3)c1-c1cccs1 | > 200 µM | > 200 µM |  |
| Cn1c(=O)c2c(nc(NCCCCl)n2CC(=O)O)n(C)c1=O | > 200 µM | > 200 µM |  |
| O=C1Nc2ccccc2/C1=c1/sc2nc3ccccc3n2c1=O |  |  | inactive |
| Brc1ccc2c(-c3csc(-c4c[nH]c5cc(Br)ccc45)n3)c[nH]c2c1 | > 200 µM | 52.5 µM |  |
| COc1ccc(C2=[S+]C(c3ccccc3)(c3ccccc3)c3ccccc32)cc1 |  |  | inactive |
| Cc1ccc(NC2=NCCS2)c(C)c1 | > 200 µM | > 200 µM |  |
| COc1cc(CC2c3cc(OC)c(OC)cc3CC[N+]2(C)C)c(Oc2cc(CC3c4cc(OC)c(OC)cc4CC[N+]3(C)C)ccc2OC)cc1OC (configuration not stated) |  |  | inactive |
| NC(=S)N/N=C\NN/C=N/NC(N)=S | > 200 µM | 102 µM |  |
| O=C(c1ccccc1)N1C(=S)N(c2ccc([N+](=O)[O-])cc2)C(=Nc2ccccc2)C1=Nc1ccccc1 | > 200 µM | 1 µM |  |
| CCCCCC=C(c1cc(Cl)c(OC)c(C(=O)N(C)C)c1)c1cc(Cl)c(OC)c(C(=O)N(C)C)c1 | > 36.3 µM | 21.4 µM |  |
| COC(=O)C1SC[C@H]2C(=O)N(c3ccccc3)C(=O)N12 (some centres not stated) | > 200 µM | > 200 µM |  |
| CCC(/C=C/c1ccccc1)=N\N=C(\C=C\c1ccccc1)CC | > 41.7 µM | 2.51 µM |  |
| O=C(c1ccccc1)N1CCN(C(=S)NC2CCCCC2)C1=S | > 200 µM | 12 µM |  |
| CC(=O)NC(CCCCN(Cc1ccccc1)C(=O)N(C)N=O)C(=O)NCc1ccccc1 (configuration not stated) | > 110 µM | 93.3 µM |  |
| CCCCCCCCCCCCCCCC(=O)Nc1ccn(C2CC(OP(=O)(O)OCC3OC(n4cc(C)c(=O)[nH]c4=O)CC3N=[N+]=[N-])C(CO)O2)c(=O)n1 (configuration not stated) | 0.813 µM | > 100 µM |  |
| O=C1NC2=C(CCCC/C2=N\O)C12CCCCC2 |  |  | inactive |
